# Data published in US12059422B2 (MEI Pharma, Inc., priority 2011, dated 2024).
# pIC50: −log10 of the molar value.
# Legend:
# [1] = target: T1, PI3K alpha (Homo sapiens, UniProt P42336); assay: Luciferase-based luminescence assay (KinaseGlo), PI3K alpha enzymatic activity; assay type: biochemical; conditions: inhibition of enzymatic activity, 25 μM ATP, read-out: IC50 p110α
# T1 construct: purchased Invitrogen Corp., Carlsbad, CA, USA
# In short: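 KinaseGlo luminescence measured ATP remaining after PIP2 (50 μM) phosphorylation with 25 μM ATP in HEPES pH 7.5 buffer with CHAPS and DTT. Final enzyme was 1.65 nM alpha (1 h reaction) or 6.86 nM delta (2 h reaction). IC50 was curve-fitted from 10 concentrations.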
# [2] = target: PI3Kα (Homo sapiens, UniProt P42336); assay: ELISA assay for PI3Kα: in-cell ELISA, phosphorylation of AKT (Thr308) in MDA-MB-453 cells; assay type: cell-based; conditions: cellular, pAKT (Thr308), IGF-1 stimulation, read-out: IC50 p110α
# Protocol: PI3K alpha (PI3Kα) activity was determined by measuring the phosphorylation of AKT (Thr308) using an in-cell ELISA assay. MDA-MB-453 (breast carcinoma) cells were obtained from ATCC (ATCC #HTB-131). Growth medium was DMEM (CellGro #CV-10-013-CV) supplemented with 10% fetal bovine serum, 100 IU/mL penicillin, 100 μg/mL streptomycin, and 1×MEM non-essential amino acids. Phosphate buffered saline (PBS) contained 2.7 M NaCl, 54 mM KCl, 86 mM […] (dibasic, anhydrous), and 28 mM […] (monobasic, anhydrous) at pH 7.2. Stimulation mixture (10×) was 1000 ng/mL LONG® R^3 human IGF-1 (Sigma #I1271) diluted in serum-free DMEM medium (CellGro #CV-10-013-CV). Compounds for testing were dissolved and serially diluted in 100% DMSO (total of 10 concentrations), then diluted in serum-free DMEM to 2× final assay concentration. Fixative solution (2×) was 8% formaldehyde (Amresco #M134) diluted in PBS. Permeabilization solution was PBS supplemented with 0.1% Triton X-100. Blocking buffer was obtained from LiCor (LiCor #927-40000). Wash buffer was PBS supplemented with 0.1% Tween-20. Primary antibody solution was rabbit anti-pAKT^T308 monoclonal antibody (Cell Signaling #2965) and mouse anti-total S6 (Santa Cruz #74459) diluted 1:500 and 1:2000, respectively, in the blocking buffer. Secondary antibody solution was IRDye 800CW-conjugated goat anti-rabbit IgG (LiCor #926-32211) and IRDye 680LT-conjugated goat anti-mouse IgG (LiCor #926-68020) diluted 1:1000 and 1:2000, respectively, in the blocking buffer.
# MDA-MB-453 cells were subcultured in growth medium and seeded into flat, clear bottom, 96-well plates (Corning #3904) at 40000 cells/well, then incubated overnight in a 5% CO2 incubator at 37° C. Growth medium in plates was replaced with 100 μL/well serum-free DMEM and incubated overnight at 37° C. in a 5% CO2 incubator. Fresh serum-free DMEM (50 μL/well) was added to plates. Compound treatment was performed by adding 50 μL/well of 2× compound mixture to plates and incubating for 1 hr at 37° C. and 5% CO2, after which 11 μL/well of 10× stimulation mixture was added and plates were incubated for 10 min at 37° C. and 5% CO2. Fixation was performed by adding 110 μL/well of 2× fixative solution to the plates and incubating for 20 min at room temperature. Permeabilization was performed by replacing fixation solution with 150 μL/well permeabilization solution and incubating for 10 min at room temperature. Permeabilization was repeated (for a total of 2 times). Permeabilization solution was replaced with 100 μL/well blocking buffer and plates were incubated for 1 hour at room temperature, after which 100 μL/well of primary antibody solution was added and plates were incubated overnight at 4° C. Plates were washed with wash buffer, after which 100 μL/well of secondary antibody solution was added to the plates and incubated in the dark for 1 hr at room temperature. Plates were washed with wash buffer, followed by a wash with PBS. After completely removing PBS, plates were scanned on the Licor Odyssey Imager. Images were quantified using Licor Odyssey application software. IC50 values were determined by curve fitting using a Collaborative Drug Discovery database (www.collaborativedrug.com).
# PI3Kα, sequence (P27986 2-724): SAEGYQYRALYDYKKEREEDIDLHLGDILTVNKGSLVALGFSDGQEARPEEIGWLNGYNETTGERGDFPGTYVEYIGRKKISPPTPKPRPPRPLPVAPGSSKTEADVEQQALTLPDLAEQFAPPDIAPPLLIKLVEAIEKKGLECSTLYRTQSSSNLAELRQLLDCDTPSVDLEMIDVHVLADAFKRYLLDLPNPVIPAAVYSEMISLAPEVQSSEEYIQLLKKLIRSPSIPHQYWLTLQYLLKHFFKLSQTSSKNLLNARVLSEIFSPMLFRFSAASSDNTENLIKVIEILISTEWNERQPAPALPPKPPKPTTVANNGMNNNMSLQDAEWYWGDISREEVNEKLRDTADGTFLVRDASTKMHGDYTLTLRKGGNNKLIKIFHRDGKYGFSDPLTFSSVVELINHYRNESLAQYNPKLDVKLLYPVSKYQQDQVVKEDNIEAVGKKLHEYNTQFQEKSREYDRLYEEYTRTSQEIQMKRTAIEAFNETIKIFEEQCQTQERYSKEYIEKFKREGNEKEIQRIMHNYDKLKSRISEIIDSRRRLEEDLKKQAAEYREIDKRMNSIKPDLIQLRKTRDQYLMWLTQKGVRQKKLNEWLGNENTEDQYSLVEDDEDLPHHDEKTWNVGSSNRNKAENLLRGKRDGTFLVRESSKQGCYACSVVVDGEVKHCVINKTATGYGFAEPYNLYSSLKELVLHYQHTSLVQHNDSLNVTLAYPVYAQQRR
# PI3Kα, sequence (P42336 whole entry): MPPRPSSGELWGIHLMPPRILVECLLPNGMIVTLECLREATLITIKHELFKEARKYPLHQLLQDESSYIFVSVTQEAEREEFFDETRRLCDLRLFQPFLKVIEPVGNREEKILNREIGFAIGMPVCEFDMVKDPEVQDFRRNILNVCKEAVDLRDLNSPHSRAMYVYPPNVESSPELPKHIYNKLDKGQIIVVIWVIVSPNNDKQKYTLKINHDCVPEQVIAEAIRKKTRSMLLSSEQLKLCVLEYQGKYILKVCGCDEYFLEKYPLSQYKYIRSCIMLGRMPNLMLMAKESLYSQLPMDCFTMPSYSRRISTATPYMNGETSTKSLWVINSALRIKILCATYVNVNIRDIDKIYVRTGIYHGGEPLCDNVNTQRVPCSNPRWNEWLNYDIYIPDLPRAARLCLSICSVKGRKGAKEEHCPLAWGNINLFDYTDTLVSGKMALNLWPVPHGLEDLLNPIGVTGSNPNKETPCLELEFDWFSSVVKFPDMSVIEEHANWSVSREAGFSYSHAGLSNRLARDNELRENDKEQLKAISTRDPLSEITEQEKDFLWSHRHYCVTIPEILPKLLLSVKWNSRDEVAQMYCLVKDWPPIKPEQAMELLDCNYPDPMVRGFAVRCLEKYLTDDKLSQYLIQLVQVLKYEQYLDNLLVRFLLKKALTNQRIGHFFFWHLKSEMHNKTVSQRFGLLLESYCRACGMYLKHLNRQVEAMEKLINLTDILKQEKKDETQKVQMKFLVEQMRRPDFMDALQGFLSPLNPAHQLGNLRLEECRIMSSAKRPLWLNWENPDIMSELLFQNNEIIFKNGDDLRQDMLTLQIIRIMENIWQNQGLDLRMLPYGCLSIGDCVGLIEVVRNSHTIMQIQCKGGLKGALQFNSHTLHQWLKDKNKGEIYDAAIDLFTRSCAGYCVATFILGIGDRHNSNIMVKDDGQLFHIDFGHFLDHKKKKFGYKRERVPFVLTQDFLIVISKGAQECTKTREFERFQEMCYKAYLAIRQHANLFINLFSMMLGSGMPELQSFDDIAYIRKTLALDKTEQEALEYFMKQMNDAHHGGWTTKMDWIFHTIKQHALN
# T1 sequence (P42336 whole entry, species assumed): as the sequence (P42336 whole entry) above
# T1 sequence (P27986 whole entry partner, species assumed): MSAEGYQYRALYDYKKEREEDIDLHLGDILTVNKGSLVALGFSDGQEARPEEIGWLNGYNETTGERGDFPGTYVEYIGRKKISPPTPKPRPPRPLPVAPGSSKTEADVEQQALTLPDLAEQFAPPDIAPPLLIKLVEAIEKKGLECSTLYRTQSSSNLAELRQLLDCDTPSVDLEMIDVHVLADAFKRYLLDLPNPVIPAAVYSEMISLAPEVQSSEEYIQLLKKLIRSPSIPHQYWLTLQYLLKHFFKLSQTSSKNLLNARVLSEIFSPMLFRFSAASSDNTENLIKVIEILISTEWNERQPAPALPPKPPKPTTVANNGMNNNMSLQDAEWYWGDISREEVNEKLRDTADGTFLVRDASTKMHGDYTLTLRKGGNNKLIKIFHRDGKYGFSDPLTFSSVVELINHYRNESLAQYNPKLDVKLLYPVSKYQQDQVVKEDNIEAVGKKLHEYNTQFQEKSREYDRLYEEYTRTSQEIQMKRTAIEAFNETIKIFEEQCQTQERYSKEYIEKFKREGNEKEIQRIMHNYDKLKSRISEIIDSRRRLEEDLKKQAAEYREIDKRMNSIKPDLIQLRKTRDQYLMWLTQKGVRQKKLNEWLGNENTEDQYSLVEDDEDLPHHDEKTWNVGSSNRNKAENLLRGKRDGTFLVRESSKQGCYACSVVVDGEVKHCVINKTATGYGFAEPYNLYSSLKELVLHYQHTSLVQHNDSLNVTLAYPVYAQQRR
Structure (SMILES),pIC50 [1],pIC50 [2]
"Cc1cccc(CC(C)(C)Nc2nc(N3CCOCC3)nc(-n3c(C(F)F)nc4ccccc43)n2)c1 [Compound A49, 4-(2-(difluoromethyl)-1H-benzo[d]imidazol-1-yl)-N-(2-methyl-1-m-tolylpropan-2-yl)-6-morpholino-1,3,5-triazin-2-amine]",< 6.30,< 6.30
"COc1cc(CC(C)(C)Nc2nc(N3CCOCC3)nc(-n3c(C(F)F)nc4ccccc43)n2)ccc1F [Compound A50, 4-(2-(difluoromethyl)-1H-benzo[d]imidazol-1-yl)-N-(1-(4-fluoro-3-methoxyphenyl)-2-methylpropan-2-yl)-6-morpholino-1,3,5-triazin-2-amine]",< 6.30,< 6.30
"CC(C)(Cc1ccc(F)cc1F)Nc1nc(N2CCOCC2)nc(-n2c(C(F)F)nc3ccccc32)n1 [Compound A51, 4-(2-(difluoromethyl)-1H-benzo[d]imidazol-1-yl)-N-(1-(2,4-difluorophenyl)-2-methylpropan-2-yl)-6-morpholino-1,3,5-triazin-2-amine]",< 6.30,< 6.30
"CC(C)(Cc1c(F)cccc1F)Nc1nc(N2CCOCC2)nc(-n2c(C(F)F)nc3ccccc32)n1 [Compound A52, 4-(2-(difluoromethyl)-1H-benzo[d]imidazol-1-yl)-N-(1-(2,6-difluorophenyl)-2-methylpropan-2-yl)-6-morpholino-1,3,5-triazin-2-amine]",< 6.30,< 6.30
"CC(C)(Cc1ccccc1-c1ccccc1F)Nc1nc(N2CCOCC2)nc(-n2c(C(F)F)nc3ccccc32)n1 [Compound A59, 4-(2-(difluoromethyl)-1H-benzo[d]imidazol-1-yl)-N-(1-(2′-fluorobiphenyl-2-yl)-2-methylpropan-2-yl)-6-morpholino-1,3,5-triazin-2-amine]",< 6.30,< 6.30
"Cc1ccccc1-c1ccccc1CC(C)(C)Nc1nc(N2CCOCC2)nc(-n2c(C(F)F)nc3ccccc32)n1 [Compound A60, 4-(2-(difluoromethyl)-1H-benzo[d]imidazol-1-yl)-N-(2-methyl-1-(2′-methylbiphenyl-2-yl)propan-2-yl)-6-morpholino-1,3,5-triazin-2-amine]",< 6.30,< 6.30
"CC(C)(Cc1ccccc1-c1ccccc1Cl)Nc1nc(N2CCOCC2)nc(-n2c(C(F)F)nc3ccccc32)n1 [Compound A61, 4-(2-(difluoromethyl)-1H-benzo[d]imidazol-1-yl)-N-(1-(6′-chlorobiphenyl-2-yl)-2-methylpropan-2-yl)-6-morpholino-1,3,5-triazin-2-amine]",< 6.30,< 6.30
CC(C)(Cc1ccccc1-c1cccnc1F)Nc1nc(N2CCOCC2)nc(-n2c(C(F)F)nc3ccccc32)n1 [Compound A62],< 6.30,< 6.30
"CC(C)(Cc1ccccc1-c1cncnc1)Nc1nc(N2CCOCC2)nc(-n2c(C(F)F)nc3ccccc32)n1 [Compound A63, 4-(2-(difluoromethyl)-1H-benzo[d]imidazol-1-yl)-N-(2-methyl-1-(2-(pyrimidin-5-yl)phenyl)propan-2-yl)-6-morpholino-1,3,5-triazin-2-amine]",6.30 to 6.70,< 6.30
"CN1CCN(c2cc(-c3ccccc3CC(C)(C)Nc3nc(N4CCOCC4)nc(-n4c(C(F)F)nc5ccccc54)n3)ccn2)CC1 [Compound A64, 4-(2-(difluoromethyl)-1H-benzo[d]imidazol-1-yl)-N-(2-methyl-1-(2-(2-(4-methylpiperazin-1-yl)pyridin-4-yl)phenyl)propan-2-yl)-6-morpholino-1,3,5-triazin-2-amine]",< 6.30,< 6.30
"CC(C)(Cc1ccccc1-c1cccc(CN2CCOCC2)c1)Nc1nc(N2CCOCC2)nc(-n2c(C(F)F)nc3ccccc32)n1 [Compound A65, 4-(2-(difluoromethyl)-1H-benzo[d]imidazol-1-yl)-N-(2-methyl-1-(3′-(morpholinomethyl)biphenyl-2-yl)propan-2-yl)-6-morpholino-1,3,5-triazin-2-amine]",< 6.30,< 6.30

# The next lines start with the values.
pIC50 [1],pIC50 [2],Structure (SMILES)
< 6.30,< 6.30,"COc1cccc(-c2ccccc2CC(C)(C)Nc2nc(N3CCOCC3)nc(-n3c(C(F)F)nc4ccccc43)n2)c1 [Compound A66, 4-(2-(difluoromethyl)-1H-benzo[d]imidazol-1-yl)-N-(1-(3′-methoxybiphenyl-2-yl)-2-methylpropan-2-yl)-6-morpholino-1,3,5-triazin-2-amine]"
< 6.30,< 6.30,"COc1ccc(-c2ccccc2CC(C)(C)Nc2nc(N3CCOCC3)nc(-n3c(C(F)F)nc4ccccc43)n2)cc1 [Compound A67, 4-(2-(difluoromethyl)-1H-benzo[d]imidazol-1-yl)-N-(1-(4′-methoxybiphenyl-2-yl)-2-methylpropan-2-yl)-6-morpholino-1,3,5-triazin-2-amine]"
< 6.30,< 6.30,"CC(C)(Cc1ccccc1C1CCNCC1)Nc1nc(N2CCOCC2)nc(-n2c(C(F)F)nc3ccccc32)n1 [Compound A68, 4-(2-(difluoromethyl)-1H-benzo[d]imidazol-1-yl)-N-(2-methyl-1-(2-(piperidin-4-yl)phenyl)propan-2-yl)-6-morpholino-1,3,5-triazin-2-amine]"
< 6.30,< 6.30,"CCN1CCC(c2ccccc2CC(C)(C)Nc2nc(N3CCOCC3)nc(-n3c(C(F)F)nc4ccccc43)n2)CC1 [Compound A70, 4-(2-(difluoromethyl)-1H-benzo[d]imidazol-1-yl)-N-(1-(2-(1-ethylpiperidin-4-yl)phenyl)-2-methylpropan-2-yl)-6-morpholino-1,3,5-triazin-2-amine]"
< 6.30,< 6.30,"CC(C)N1CCC(c2ccccc2CC(C)(C)Nc2nc(N3CCOCC3)nc(-n3c(C(F)F)nc4ccccc43)n2)CC1 [Compound A71, 4-(2-(difluoromethyl)-1H-benzo[d]imidazol-1-yl)-N-(1-(2-(1-isopropylpiperidin-4-yl)phenyl)-2-methylpropan-2-yl)-6-morpholino-1,3,5-triazin-2-amine]"
6.70 to 7.00,6.30 to 6.70,"CC(=O)N1CCC(c2ccccc2CC(C)(C)Nc2nc(N3CCOCC3)nc(-n3c(C(F)F)nc4ccccc43)n2)CC1 [Compound A72, 4-(2-(difluoromethyl)-1H-benzo[d]imidazol-1-yl)-N-(2-methyl-1-(2-(1-acetylpiperidin-4-yl)phenyl)propan-2-yl)-6-morpholino-1,3,5-triazin-2-amine]"
6.30 to 6.70,6.30 to 6.70,"CC(C)(Cc1ccccc1C1CCN(S(C)(=O)=O)CC1)Nc1nc(N2CCOCC2)nc(-n2c(C(F)F)nc3ccccc32)n1 [Compound A73, 4-(2-(difluoromethyl)-1H-benzo[d]imidazol-1-yl)-N-(2-methyl-1-(2-(1-(methylsulfonyl)piperidin-4-yl)phenyl)propan-2-yl)-6-morpholino-1,3,5-triazin-2-amine]"
< 6.30,< 6.30,"CC(C)(Cc1ccccc1C1CCNC1)Nc1nc(N2CCOCC2)nc(-n2c(C(F)F)nc3ccccc32)n1 (stereo not shown) [Compound A74, 4-(2-(difluoromethyl)-1H-benzo[d]imidazol-1-yl)-N-(2-methyl-1-(2-(pyrrolidin-3-yl)phenyl)propan-2-yl)-6-morpholino-1,3,5-triazin-2-amine]"
< 6.30,< 6.30,"CN(C)CCCc1ccccc1CC(C)(C)Nc1nc(N2CCOCC2)nc(-n2c(C(F)F)nc3ccccc32)n1 [Compound A76, 4-(2-(difluoromethyl)-1H-benzo[d]imidazol-1-yl)-N-(1-(2-(3-(dimethylamino)propyl)phenyl)-2-methylpropan-2-yl)-6-morpholino-1,3,5-triazin-2-amine]"
